From US12258424B2, “Polypeptides and compositions comprising the same” (priority 2020, dated 2025)
Residues, ends and D or L forms follow the SMILES beside them.

Tests used:
[1] = test system: Jurkat T cells co-cultured with DU-145 cancer cells; experiment: Jurkat T cell proliferation in co-culture with DU-145 cells (CellTiter-Glo); assay type: cell-based, human; details: peptide 5 μM, 24 hours
Method: (§1) Proliferation and Apoptosis Assays. […] Briefly, 3×10^4 Jurkat T cells were cultured alone or co-cultured with 1.5×10^5 DU-145 cancer cells in a 24-well plate for the proliferation assay. For the apoptosis assay, 6×10^4 Jurkat T cells were cultured alone or co-cultured with 3×10^5 DU-145 cancer cells in a 6-well plate. After incubation with the anti-PD-L1 peptides (5 μM) or anti-PD-L1 antibody (1 μM) for 24 hours, Jurkat T cells were harvested from the supernatant. Proliferation of Jurkat cells was determined using the CellTiter-Glo luminescent cell viability assay (Promega, WI), and apoptosis of the cells were determined using the Dead Cell Apoptosis Kit with Annexin V Alexa Fluor® 488 and Propidium Iodide (Thermo-Fisher Scientific, Pittsburgh, PA) as we described before^21.

[2] = test system: Jurkat T cells co-cultured with DU-145 cancer cells; experiment: Jurkat T cell apoptosis in co-culture with DU-145 cells (Annexin V/PI); assay type: cell-based, human; details: co-culture with DU-145 (15.1% untreated); peptide 5 μM or antibody 1 μM, 24 hours
Method: as §1

DU145 cancer cell = assay type: cell-based, human
Method: (§2) Ninety-six-well plates were coated with 100 ng of PD-L1 protein (G&P Biosciences, human PD-L1 ECD, cat #FCL0784B. mouse PD-L1, cat #FCL3502B) and later blocked with 2% BSA for 2 hours at room temperature. Various concentrations of peptides were loaded into the wells and incubated for 1 hour at room temperature. […] Streptavidin-HRP (R & D systems) and chromogenic substrate were added into the wells. OD450 was then recorded and referenced to OD540.
The blocking efficiency of the anti-PD-L1 peptides at 10 μM (FIG. 2c). […] The IC50 of each peptide was also determined using recombinant human PD-L1 protein and DU-145 cancer cells.

[3] = target: human PD-L1/CD80 interaction (Homo sapiens, UniProt Q9NZQ7); experiment: Blockade of the CD80/PD-L1 interaction; assay type: binding; details: at 10 μM, FIG. 8a
human PD-L1/CD80 interaction, sequence (Q9NZQ7 19-238 limits assumed): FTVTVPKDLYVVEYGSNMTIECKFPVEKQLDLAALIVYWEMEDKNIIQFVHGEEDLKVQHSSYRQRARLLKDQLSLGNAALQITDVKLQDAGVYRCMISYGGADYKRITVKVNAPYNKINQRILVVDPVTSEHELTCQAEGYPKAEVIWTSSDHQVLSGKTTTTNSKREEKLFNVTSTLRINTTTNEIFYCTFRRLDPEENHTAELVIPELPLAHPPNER

4T1 cancer cell = assay type: cell-based, mouse
hPD-L1 = hPD-L1 (Homo sapiens, UniProt Q9NZQ7); experiment: Blockade of the PD-1/PD-L1 interaction, plate coated with human PD-L1 protein; assay type: binding; design: PD-L1 protein (G&P Biosciences, human PD-L1 ECD, cat #FCL0784B); purchased G&P Biosciences FCL0784B (PD-L1)
hPD-L1, sequence (Q9NZQ7 19-238 limits assumed): as above
Method: as §2

[4] = test system: 3D tumor spheroids of MDA-MB-231 cells; experiment: 3D tumor spheroid penetration assay; assay type: cell-based, human; details: Cy5-labeled, 2 and 6 hours
Method: 3D Tumor Spheroid Penetration Assay. 3D spheroids of MDA-MB-231 cells were generated using the Spheroid Formation Extracellular Matrix (ECM) as per the company's protocol (Amsbio, Cambridge, MA). Briefly, 3,000 tumor cells were mixed with 50 μL Spheroid Formation ECM and loaded into a Corning™ 96-well Ultra-low Attachment Treated Spheroid Microplate (Corning, Pittsburgh, PA). The plate was centrifuged at 200 g for 3 min at 4° C. The cells were then incubated at 37° C. until the diameter reached approximately 700 μm. The Cy5-labeled CLP002 peptide and anti-PD-L1 antibody were incubated with the spheroids for 2 or 6 hours. After washing, penetration of the peptide and antibody inside the tumor spheroids was determined using confocal microscopy.

[5] = test system: CD8+ T cells in CT26 tumor tissues; experiment: IHC staining of CD8+ T cells in CT26 tumor tissues; assay type: in vivo, mouse
Method: Immunohistochemistry (IHC) Staining. Tumor tissues were fixed in 10% formalin, embedded in paraffin, sectioned, and mounted on glass slides by Truman Medical Centers Anatomic Pathology Core (Kansas City, MO). The slides were heated in Tris buffer (pH 9.0) for 45 min to recover antigen. After deparaffinization and rehydration, the sections were stained with the anti-mouse CD8 alpha antibody (Abcam, ab209775) overnight at 4° C. The slides were incubated with a biotinylated goat anti-rabbit secondary antibody, followed by the DAB chromogen mixture. Four sections (2 male and 2 female) were imaged in each group. For each section, 3 regions were randomly selected for imaging.

[6] = test system: CT26 colorectal tumor-bearing mouse model; experiment: Anti-tumor activity in CT26 tumor-bearing Balb/C mice; assay type: in vivo
From the text: Animal Study. The animal protocol was approved by the University of Missouri-Kansas City, Institutional Animal Care and Use Committee (IACUC). Five-week old male and female Balb/c mice were purchased from Charles Rivers Laboratories (Wilmington, Mass.) and housed in a temperature and humidity controlled room on a 12-hour light-dark cycle. Approximately 5×10^5 CT26 cells were subcutaneously injected into the right flank. The mice were randomly divided into five different groups (10 mice/group, 50% female, 50% male). The mice were intraperitoneally injected with 2 mg/kg peptide daily when the tumor size reached 50-100 mm^3. The anti-mouse PD-L1 antibody (10F.9G2, BioXcell) was administrated as a positive control at a dose of 10 mg/kg every two days. The tumor size was assessed with a caliper and calculated with the formula 0.5×length×width^2. ELISA kits of PD-L1 (Cat #DY1019-05), IFNγ (Cat #DY485-05), and IL-6 (Cat #DY406-05) were used to measure the expressions of PD-L1, IFNγ, and IL-6, respectively, in tumors as per the company's instructions (R & D Systems, Minneapolis, MN).
The anti-mouse PD-L1 antibody (BioXcell, 10F.9G2) was administered intraperitoneally every other day at 10 mg/kg. […] In general, CLP002 (SEQ ID NO:2) exerted a better tumor inhibitory effect than CLP003 (SEQ ID NO:3), which was similar to the antibody. […] In FIG. 6e the weight of the tumors harvested at day 14 is shown. The results were represented as the mean±SD (n=10). It is noteworthy that the peptides were screened against the human PD-L1 protein, which, in fact, would compromise the anti-tumor activity of the peptides in a mouse model.

In the case of CC(C)C[C@H](NC(=O)[C@H](CC(N)=O)NC(=O)[C@H](Cc1c[nH]c2ccccc12)NC(=O)[C@@H](NC(=O)[C@H](Cc1ccc(O)cc1)NC(=O)[C@H](Cc1ccc(O)cc1)NC(=O)[C@H](CO)NC(=O)[C@H](CCCNC(=N)N)NC(=O)[C@H](Cc1c[nH]cn1)NC(=O)[C@@H](N)Cc1c[nH]c2ccccc12)[C@@H](C)O)C(=O)N[C@@H](CC(N)=O)C(=O)N[C@H](C(=O)O)[C@@H](C)O [CLP002] (H-WHRSYYTWNLNT-OH; N-terminus and C-terminus assumed), the “Effect on Jurkat T cell proliferation” value [1] is reported as “restored Jurkat T cell proliferation”, the “Apoptosis of Jurkat cells” value [2] is reported as 10.2% and the IC50 (DU145 cancer cell; 2 h) is reported as 1430 nM. For the same compound, the “Blocking Efficiency (%)” value (DU145 cancer cell; DU-145 cancer cells) was 80%, the “Blocking efficiency against CD80/PD-L1 interaction” value [3] was ~48% and the “Blocking Efficiency (%)” value (4T1 cancer cell; 4T1 cancer cell) was 61%. For the same compound, the IC50 (4T1 cancer cell; 2 h) was 2440 nM, the “Blocking Efficiency (%)” value (hPD-L1; human PD-L1 protein) was 85% and the “Blocking of the human PD-1/PD-L1 interaction (in words)” value (hPD-L1; peptides at 10 μM, FIG. 2c) was “highest blocking efficiency”. For the same compound, the IC50 (hPD-L1; plate coated with human PD-L1 protein) was 2170 nM, the “Tumor spheroid penetration (in words)” value ([4]; confocal microscopy) was “better tumor penetration than the antibody” and the “Depth of penetration from the periphery of the spheroids” value ([4]; spheroids ~700 μm) was “approximately 250 μm”. The “Density of CD8+ T cells in tumor tissues” value [5] was “significantly increased”, the “Location of CD8+ T cells in the tumor” value [5] was “penetration of CD8^+ T cells into the tumor tissue” and the Tumor growth ([6]; peptides 2 mg/kg i.p. daily, antibody 10 mg/kg i.p. every other day) was “effectively suppressed tumor growth”. The “Tumor weights at day 14” value ([6]; versus saline group) was “significantly smaller than the saline group”.
